Data taken from patent publication US10493087B2, “Sialylation-increasing therapies for diseases associated with oxidative stress” (THE UNITED STATES OF AMERICA, AS REPRESENTED BY THE …, priority 2015, dated 2019).

How the values were obtained:
[1] = system: heart tissue of GNE −/− mice; test: SNA lectin staining of heart sections (sialylation status); format: in vivo; conditions: ~1 year old GNE −/− mice treated since age 10 weeks with 2 g/kg/day; vs untreated GNE −/− mice
Protocol: Mouse hearts or skeletal muscle (gluteus) were harvested and fixed in 4% paraformaldehyde for 48 hours at room temperature, dehydrated in 70% ethanol at 4° C., and paraffin-embedded for sectioning (Histoserv, Gaithersburg, Md.). Tissue sections (5 um) were stained with a variety of lectins, as previously described for mouse kidneys and muscle (Kakani et al., Am J Pathol 2012; 180: 1431-40; Niethamer et al., Mol Genet Metab 2012; 107: 748-55) as well as for GNE myopathy patients' muscle (Leoyklang et al., Biomarkers Med 2014; 8: 641-52). Lectin histochemistry was performed with fluorescein isothiocyanate (FITC) labeled lectins WGA and VVA from EY Laboratories (San Mateo, Calif.) and SNA from Vector Laboratories (Burlingame, Calif.). Each slide was also stained with the nuclear dye DAPI. Fluorescence imaging of multiple sections of heart per slide was performed under a Zeiss 510 META confocal laser-scanning microscope. All fluorescent images represent collapsed stacks of confocal Z-sections, imaged at 63× magnification.

[2] = system: GNE myopathy mice; conditions: cited from earlier work; for Prevention of muscle disease in GNE myopathy mice: prophylactic, Malicdan et al., Nature Med 2009
[3] = system: GNE myopathy mice skeletal muscle tissue; conditions: cited from earlier work; for Hyposialylation of GNE myopathy mice skeletal muscle tissue: Niethamer et al., Mol Genet Metab 2012
[4] = system: GNE Myopathy myotubes; test: ROS generation under pro-oxidants (H2O2 or menadione), ΔDCF fluorescence; format: cell-based, mice; conditions: GNE Myopathy myotubes incubated before and during exposure to H2O2 and menadione; vs untreated; p<0.01
Protocol: (§1) Cell cultures and myotubes analysis: Myocytes from Gne^−/−hGNED176V-Tg mice and littermate controls were proliferated in DMEM containing 20% fetal bovine serum and 1% chicken embryo extracts in a 5% CO2 and induced to differentiation in a serum free medium, OPTIPRO™ SFM (Gibco), to make the cells hyposialylated. Where indicated, myotubes were treated with 5 mM NeuAc (Japan Food and Liquor Alliance) or 5 mM NAC (Sigma) for 72 h.
To evaluate the ROS generation under pro-oxidants, myotubes cultured in each condition were loaded with 5 μM DCFH-DA for 1 h and recovered in the different concentrations of H2O2 or menadione-containing medium. After 30 min incubation in dark at 37° C., the microplate containing cells with pro-oxidants were placed in a plate reader and fluorescence was captured at every 5 min until it reached a plateau. Maximum fluorescence of each well was used for analysis.

[5] = system: GNE Myopathy myotubes; test: Cell viability assay under pro-oxidants (propidium iodide/Hoechst co-staining); format: cell-based, mice; conditions: treated GNE Myopathy myotubes vs untreated; same concentrations of H2O2 or menadione
Protocol: as §1
For the cell viability assay, myotubes were exposed to H2O2 for 24 h and to menadione for 6 h before staining. Nuclear staining with Hoechst 33342 (Thermo Scientific) and propidium iodide (PI) (Dojindo) was used for morphological assessment of apoptosis by fluorescence microscopy (Lee and Shacter, Journal of Biological Chemistry. 1999; 274:19792-19798). Minimum 200 nuclei were counted and cell viability was calculated by the exclusion of PI-stained nuclei from Hoechst 33342-stained nuclei.

[6] = system: GNE Myopathy myotubes; test: Intracellular ROS (DCF fluorescence) in cultured myotubes; format: cell-based, mice; conditions: GNE Myopathy myotubes treated with 5 mM for 72 h; mean±SEM; untreated 1113±30, littermate controls 115±15
Protocol: as §1
For the analysis of intracellular ROS, a popular fluorescence-based probe, 2′,7′-dichlorodihydrofluorescein diacetate (DCFH-DA) (Wang et al., Free Radical Biology and Medicine. 1999; 27:612-616; Halliwell and Whiteman, Br J Pharmacol. 2004; 142:231-255) was used. Cells were loaded with 5 μM DCFH-DA (Invitrogen) in PBS for an hour and recovered with phenol red-free DMEM (Gibco) for 30 min at 37° C. in a 5% CO2 incubator. Then the cells were placed in a CYTOFLUOR® Series 4000 multi-well fluorescence plate reader (PerSeptive Biosystems) with temperature maintained at 37° C. The excitation filter was set at 485 nm and the emission filter was set at 530 nm. The fluorescence from each well was captured and recorded.

CC(=O)NC1C(O)[C@H](O)C(CO)O[C@H]1O (stereo partly shown) [ManNAc, N-acetyl mannosamine]
Sialylation of glycans in heart tissue (SNA lectin staining) [1]: significantly increased sialylation | Prevention of muscle disease in GNE myopathy mice [2]: prophylactically prevent muscle disease | Hyposialylation of GNE myopathy mice skeletal muscle tissue [3]: rescue hyposialylation | Sialylation status of skeletal muscle (SNA and VVA signal) ([3]; oral 1 g/kg/day for 12 weeks, gastrocnemius, adapted from Niethamer et al., 2012): restored the sialylation status back to the normal range

CC(=O)N[C@H]1[C@H]([C@H](O)[C@H](O)CO)OC(O)(C(=O)O)C[C@@H]1O (stereo partly shown) [NeuAc, N-acetyl neuraminic acid]
ΔDCF fluorescence increments on exposure to pro-oxidants [4]: significantly decreased | Sialylation of glycans in heart tissue (SNA lectin staining) [1]: significantly increased sialylation | Relative cell viability under pro-oxidants [5]: more resistant | Prevention of muscle disease in GNE myopathy mice [2]: prophylactically prevent muscle disease | Muscle force generation in treated mice ([2]; sialic acid supplement, Malicdan et al. 2009, 2008): increased in proportion to muscle fiber diameter | Mean DCF fluorescence (intracellular ROS generation) [6]: 349±19 AFU | Hyposialylation of GNE myopathy mice skeletal muscle tissue [3]: rescue hyposialylation

N[C@@H]1C(O)O[C@H](CO)[C@@H](O)[C@@H]1O (stereo partly shown) [mannosamine]
Hyposialylation of GNE myopathy mice skeletal muscle tissue [3]: rescue hyposialylation

sialyllactose
Prevention of muscle disease in GNE myopathy mice [2]: prophylactically prevent muscle disease
